Experimental data reported in US20220298138A1, “ENZYME INHIBITORS” (KALVISTA PHARMACEUTICALS LIMITED, priority 2019, published 2022).

Tests used:
Human Factor XIIa = biological target: T1, Human Factor XIIa (Homo sapiens, UniProt P00748); test: Factor XIIa inhibitory activity in vitro (fluorogenic substrate H-DPro-Phe-Arg-AFC); format: biochemical; conditions: 25° C., class symbols, read-out: Human FXIIa IC50
T1 construct: purchased Enzyme Research Laboratories
T1 sequence (P00748 373-615 limits assumed): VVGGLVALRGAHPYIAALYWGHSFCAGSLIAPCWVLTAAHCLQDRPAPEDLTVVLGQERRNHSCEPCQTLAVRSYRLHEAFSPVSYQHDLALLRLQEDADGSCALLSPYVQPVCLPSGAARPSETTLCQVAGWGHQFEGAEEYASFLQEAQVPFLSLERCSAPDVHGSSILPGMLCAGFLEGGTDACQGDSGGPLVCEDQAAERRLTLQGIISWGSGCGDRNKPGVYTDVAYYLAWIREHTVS
How it was run: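 Enzyme incubated at 25° C with fluorogenic substrate H-DPro-Phe-Arg-AFC and a range of compound concentrations. Residual activity taken as initial reaction rate from […], giving IC50.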

Human FXIa = biological target: T2, Human FXIa (Homo sapiens, UniProt P03951); test: FXIa inhibitory activity in vitro (fluorogenic substrate Z-Gly-Pro-Arg-AFC), selectivity; format: biochemical; conditions: category scale, 25° C.
T2 construct: Human FXIa (Enzyme Research Laboratories) was incubated; purchased Enzyme Research Laboratories
T2 sequence (P03951 388-625 limits assumed): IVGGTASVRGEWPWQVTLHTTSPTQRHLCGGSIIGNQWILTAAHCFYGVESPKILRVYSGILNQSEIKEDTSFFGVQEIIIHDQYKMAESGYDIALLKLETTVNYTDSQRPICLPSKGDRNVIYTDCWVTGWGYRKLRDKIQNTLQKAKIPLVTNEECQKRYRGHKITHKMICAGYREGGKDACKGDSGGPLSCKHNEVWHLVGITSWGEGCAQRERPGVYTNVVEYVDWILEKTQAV
T2 sequence (P03951 19-387 partner limits assumed): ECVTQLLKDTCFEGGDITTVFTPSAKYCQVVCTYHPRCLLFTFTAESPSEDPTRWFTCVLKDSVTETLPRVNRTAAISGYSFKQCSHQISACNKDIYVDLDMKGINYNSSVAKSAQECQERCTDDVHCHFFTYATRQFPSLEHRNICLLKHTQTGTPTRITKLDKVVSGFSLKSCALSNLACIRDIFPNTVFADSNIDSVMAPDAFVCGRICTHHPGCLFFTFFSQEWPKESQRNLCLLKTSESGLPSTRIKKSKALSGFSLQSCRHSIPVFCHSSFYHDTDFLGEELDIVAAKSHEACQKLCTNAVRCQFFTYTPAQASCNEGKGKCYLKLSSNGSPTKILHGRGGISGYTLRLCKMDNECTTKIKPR
Experimental: Determination of the % Inhibition for FXIa
Human FXIa (Enzyme Research Laboratories) was incubated at 25° C. with the fluorogenic substrate Z-Gly-Pro-Arg-AFC and various concentrations of the test compound. Residual enzyme activity (initial rate of reaction) was determined by measuring the change in fluorescence at 410 nm and the IC50 value for the test compound was determined.

SMILES | IC50 (Human Factor XIIa) [µM] | IC50 (Human FXIa) [µM]
CC(C)c1cc(C(=O)N[C@@H](Cc2ccc(F)c(F)c2)C(=O)NCc2ccc3c(N)nccc3c2)nc2ncnn12 [Example 0.64, (S)—N-(1-(((1-Aminoisoquinolin-6-yl)methyl)amino)-3-(3,4-difluorophenyl)-1-oxopropan-2-yl)-7-isopropyl-[1,2,4]triazolo[1,5-a]pyrimidine-5-carboxamide] | 0.28 to 1 | > 40
CC(C)n1cc(C(=O)N[C@@H](Cc2ccc(F)c(F)c2)C(=O)NCc2ccc3c(N)nccc3c2)ccc1=O [Example 0.94] | 1 to 3 | > 40
CC(C)Oc1cc(C(=O)N[C@@H](Cc2ccc(F)c(F)c2)C(=O)NCc2ccc3c(N)nccc3c2)ccn1 [Example 0.95] | 10 to 40 | > 40
CC(C)n1ccc(C(=O)N[C@@H](Cc2ccc(F)c(F)c2)C(=O)NCc2ccc3c(N)nccc3c2)cc1=O [Example 0.96] | 3 to 10 | > 40
CC(C)c1cc(C(=O)N[C@@H](Cc2ccc(F)c(F)c2)C(=O)NCc2ccc3c(N)nccc3c2)cnn1 [Example 0.97] | 1 to 3 | > 40
CC(C)c1cncc(C(=O)N[C@@H](Cc2ccc(F)c(F)c2)C(=O)NCc2ccc3c(N)nccc3c2)n1 [Example 0.98] | 10 to 40 | > 40
CC(C)c1ccnc(C(=O)N[C@@H](Cc2ccc(F)c(F)c2)C(=O)NCc2ccc3c(N)nccc3c2)n1 [Example 0.99] | 10 to 40 | > 40
CC1CCCC(C)N1CC(=O)N[C@@H](Cc1ccc(F)c(F)c1)C(=O)NCc1ccc2c(N)nccc2c1 (stereo partly drawn) [Example 3.01] | 0.1 to 0.279 | > 40
C[C@@H]1CCC[C@H](C)N1CC(=O)N[C@@H](Cc1ccc(F)c(F)c1)C(=O)NCc1ccc2c(N)nccc2c1 [Example 3.42, (2S)—N-[(1-aminoisoquinolin-6-yl)methyl]-3-(3,4-difluorophenyl)-2-{2-[(2R,6S)-2,6-dimethylpiperidin-1-yl]acetamido}propanamide] | 0.03 to 0.1 | > 40
C[C@H](NC(=O)[C@H](N)CCc1ccccc1)C(=O)NCc1ccc2c(N)nccc2c1 [Example 6.09] | 0.1 to 0.279 | 10 to 40
CN[C@H](CCc1ccccc1)C(=O)N[C@@H](C)C(=O)NCc1ccc2c(N)nccc2c1 [Example 6.10] | 0.1 to 0.279 | 10 to 40
CC(C)N[C@H](CCc1ccccc1)C(=O)N[C@@H](C)C(=O)NCc1ccc2c(N)nccc2c1 [Example 6.11] | 0.28 to 1 | 3 to 10
C[C@H](NC(=O)[C@@H](N)CCc1ccccn1)C(=O)NCc1ccc2c(N)nccc2c1 [Example 6.12] | 10 to 40 | > 40
C[C@H](NC(=O)[C@H](N)CCc1ccccn1)C(=O)NCc1ccc2c(N)nccc2c1 [Example 6.13] | 0.28 to 1 | > 40
C[C@H](NC(=O)[C@H](N)CCCCN1CCCCC1)C(=O)NCc1ccc2c(N)nccc2c1 [Example 6.14] | 1 to 3 | 10 to 40
C[C@H](NC(=O)[C@H](N)CCc1ccncc1)C(=O)NCc1ccc2c(N)nccc2c1 [Example 6.15] | 3 to 10 | > 40
C[C@H](NC(=O)[C@H](N)COCc1ccccc1)C(=O)NCc1ccc2c(N)nccc2c1 [Example 6.16] | 10 to 40 | 10 to 40
C[C@H](NC(=O)[C@H](N)COc1ccccc1)C(=O)NCc1ccc2c(N)nccc2c1 [Example 6.17] | 10 to 40 | 10 to 40
C[C@H](NC(=O)[C@H](N)CCCc1ccccc1)C(=O)NCc1ccc2c(N)nccc2c1 [Example 6.18] | 3 to 10 | 3 to 10

SMILES | IC50 (Human Factor XIIa) [µM] | IC50 (Human FXIa) [µM]
C[C@H](NC(=O)[C@@H](CCc1ccccc1)NC1CCCCC1)C(=O)NCc1ccc2c(N)nccc2c1 [Example 6.19] | 0.03 to 0.1 | 0.3 to 1
C[C@H](NC(=O)[C@@H](CCc1ccccc1)NS(C)(=O)=O)C(=O)NCc1ccc2c(N)nccc2c1 [Example 6.20] | 0.28 to 1 | 0.3 to 1
CC(NC(=O)[C@H](N)CCc1ccccc1)C(=O)NCc1ccc2ccnc(N)c2c1 (stereo partly drawn) [Example 6.21] | 10 to 40 | > 40
C[C@@H]1CCC[C@H](C)N1CC(=O)N1CCC[C@H]1C(=O)NCc1ccc2c(N)nccc2c1 [Example 32.02] | 10 to 40 | 
C[C@@H]1CCC[C@H](C)N1CC(=O)N1CCCC[C@H]1C(=O)NCc1ccc2c(N)nccc2c1 [Example 32.03] | 1 to 3 | 
C[C@@H]1CCC[C@H](C)N1CC(=O)N1c2ccccc2C[C@H]1C(=O)NCc1ccc2c(N)nccc2c1 [Example 32.04] | 10 to 40 | 
C[C@@H]1CCC[C@H](C)N1CC(=O)N1CC[C@H](C(=O)NCc2ccc3c(N)nccc3c2)C1 [Example 32.06] | 10 to 40 | 
C[C@@H]1CCC[C@H](C)N1CC(=O)N1CC[C@@H](C(=O)NCc2ccc3c(N)nccc3c2)C1 [Example 32.07] | 10 to 40 | 
C[C@@H]1CCC[C@H](C)N1CC(=O)N1CCC[C@@H](C(=O)NCc2ccc3c(N)nccc3c2)C1 [Example 32.08] | 1 to 3 | 
C[C@@H]1CCC[C@H](C)N1CC(=O)N1c2ccccc2CC[C@H]1C(=O)NCc1ccc2c(N)nccc2c1 [Example 32.09] | 10 to 40 | 
COc1ccc(CNC(=O)[C@H](Cc2ccc(F)c(F)c2)NC(=O)CN2[C@H](C)CCC[C@@H]2C)cc1Cl [Example 34.01] | 10 to 40 | 
C[C@@H]1CCC[C@H](C)N1CC(=O)N[C@@H](Cc1ccc(F)c(F)c1)C(=O)NC1CCN(c2ccncc2)CC1 [Example 34.02] | 3 to 10 | 
C[C@@H]1CCC[C@H](C)N1CC(=O)N[C@@H](Cc1ccc(F)c(F)c1)C(=O)NCc1cccc2[nH]ccc12 [Example 34.03] | 3 to 10 | 
C[C@@H]1CCC[C@H](C)N1CC(=O)N[C@@H](Cc1ccc(F)c(F)c1)C(=O)NCc1ccnc(N)c1 [Example 34.04] | 10 to 40 | 
C[C@@H]1CCC[C@H](C)N1CC(=O)N[C@@H](Cc1ccc(F)c(F)c1)C(=O)NCc1ccc2[nH]ccc2c1 [Example 34.05] | 10 to 40 | 
C[C@@H]1CCC[C@H](C)N1CC(=O)N[C@@H](Cc1ccc(F)c(F)c1)C(=O)NCc1cnc2[nH]ccc2c1 [Example 34.06] | 3 to 10 | 
C[C@@H]1CCC[C@H](C)N1CC(=O)N[C@@H](Cc1ccc(F)c(F)c1)C(=O)NCc1ccc2[nH]ncc2c1 [Example 34.07] | 10 to 40 | 
C[C@@H]1CCC[C@H](C)N1CC(=O)N[C@@H](Cc1ccc(F)c(F)c1)C(=O)NCc1ccc2c(cnn2C)c1 [Example 34.08] | 10 to 40 | 
CC1CCCC(C)N1CC(=O)NCCC(=O)NCc1ccc2c(N)nccc2c1 (stereo not drawn) [Example 39.01] | 10 to 40 | 

SMILES | IC50 (Human Factor XIIa) [µM] | IC50 (Human FXIa) [µM]
C[C@H](NC(=O)CN1[C@H](C)CCC[C@@H]1C)C(=O)NCc1ccc2c(N)nccc2c1 [Example 39.02] | 3 to 10 | 
C[C@@H]1CCC[C@H](C)N1CC(=O)NCC(=O)NCc1ccc2c(N)nccc2c1 [Example 39.03] | 10 to 40 | 
C[C@@H]1CCC[C@H](C)N1CC(=O)N[C@H](CC(=O)NCc1ccc2c(N)nccc2c1)Cc1ccccc1 [Example 39.04] | 10 to 40 | 
CC(OCc1ccccc1)[C@H](NC(=O)CN1[C@H](C)CCC[C@@H]1C)C(=O)NCc1ccc2c(N)nccc2c1 (stereo partly drawn) [Example 39.05] | 3 to 10 | 
CC(O)[C@H](NC(=O)CN1[C@H](C)CCC[C@@H]1C)C(=O)NCc1ccc2c(N)nccc2c1 (stereo partly drawn) [Example 39.06, (2S)—N-[(1-Aminoisoquinolin-6-yl)methyl]-2-{2-[(2R,6S)-2,6-dimethylpiperidin-1-yl]acetamido}-3-hydroxybutanamide] | 10 to 40 | 
C[C@@H]1CCC[C@H](C)N1C(=O)N[C@H](CC(=O)NCc1ccc2c(N)nccc2c1)Cc1ccccc1 [Example 39.07] | 10 to 40 | 
C[C@@H]1CCC[C@H](C)N1CC(=O)NC(C)(C)C(=O)NCc1ccc2c(N)nccc2c1 [Example 39.08] | 10 to 40 | 
CC(C)N1CCC[C@@H]1C(=O)N[C@@H](Cc1ccc(F)c(F)c1)C(=O)NCc1ccc2c(N)nccc2c1 [Example 44.01] | 0.28 to 1 | 
CC(C)N1CCC[C@@H]1C(=O)N[C@@H](Cc1ccc(F)c(F)c1)C(=O)NC1CCN(c2ccncc2)CC1 [Example 44.02] | 10 to 40 | 
CC(C)N1CCC[C@@H]1C(=O)N[C@@H](Cc1ccc(F)c(F)c1)C(=O)NCc1cccc2[nH]ccc12 [Example 44.03] | 10 to 40 | 
CC(C)N1CCC[C@@H]1C(=O)N[C@@H](Cc1ccc(F)c(F)c1)C(=O)NCc1cnc2[nH]ccc2c1 [Example 44.04] | 10 to 40 | 
CC(C)N1CCC[C@@H]1C(=O)N[C@@H](Cc1ccc(F)c(F)c1)C(=O)NCc1ccc2[nH]ncc2c1 [Example 44.05] | 10 to 40 | 
CC(C)N1CCC[C@@H]1C(=O)N[C@@H](Cc1ccc(F)c(F)c1)C(=O)NCc1ccc2c(cnn2C)c1 [Example 44.06] | 10 to 40 | 
CCCS(=O)(=O)N[C@@H](Cc1ccc(F)c(F)c1)C(=O)NCc1ccc2c(N)nccc2c1 [Example 55.01] | 10 to 40 | 
CS(=O)(=O)N[C@@H](Cc1ccc(F)c(F)c1)C(=O)NCc1ccc2c(N)nccc2c1 [Example 55.02] | 10 to 40 | 
N#Cc1ccccc1CN[C@@H](Cc1ccc(F)c(F)c1)C(=O)NCc1ccc2c(N)nccc2c1 [Example 55.03] | 10 to 40 | 
N#Cc1ccc(CS(=O)(=O)N[C@@H](Cc2ccc(F)c(F)c2)C(=O)NCc2ccc3c(N)nccc3c2)cc1 [Example 55.04] | 10 to 40 | 
Cc1ccc(C)c(S(=O)(=O)NCC(=O)N[C@@H](Cc2ccc(F)c(F)c2)C(=O)NCc2ccc3c(N)nccc3c2)c1 [Example 55.05] | 1 to 3 | 
